Measurements published in ChEMBL document CHEMBL1140148, “Structure-activity studies on a series of a 2-aminopyrimidine-containing histamine H4 receptor ligands” (J Med Chem, 2008).

Tests used:
Histamine H4 receptor [1] = target: T1, Histamine H4 receptor (Homo sapiens, UniProt Q9H3N8); conditions: HEK293
[2] = target: Histamine H4 receptor (Rattus norvegicus) (UniProt Q91ZY1); conditions: HEK293
Histamine H4 receptor [3] = target: T1, Histamine H4 receptor; assay: Agonist activity at human histamine H4 receptor expressed in HEK293 cells coexpressing Gqi5 protein assessed as calcium flux by FLIPR assay relative to histamine; assay type: functional, cell-based
Histamine H4 receptor [4] = target: T1, Histamine H4 receptor; assay: Agonist activity at human histamine H4 receptor expressed in HEK293 cells coexpressing Gqi5 protein assessed as calcium flux by FLIPR assay; assay type: functional, cell-based
Histamine H4 receptor [5] = target: Histamine H4 receptor (Rattus norvegicus, UniProt Q91ZY1); assay: Agonist activity at rat histamine H4 receptor expressed in HEK293 cells coexpressing Gqi5 protein assessed as calcium flux by FLIPR assay; assay type: functional, cell-based
[6] = target: Histamine H4 receptor (Rattus norvegicus) (UniProt Q91ZY1); assay: Agonist activity at rat histamine H4 receptor expressed in HEK293 cells coexpressing Gqi5 protein assessed as calcium flux by FLIPR assay relative to histamine; assay type: functional, cell-based

Histamine H4 receptor (Rattus norvegicus, UniProt Q91ZY1), sequence (Q91ZY1 whole entry): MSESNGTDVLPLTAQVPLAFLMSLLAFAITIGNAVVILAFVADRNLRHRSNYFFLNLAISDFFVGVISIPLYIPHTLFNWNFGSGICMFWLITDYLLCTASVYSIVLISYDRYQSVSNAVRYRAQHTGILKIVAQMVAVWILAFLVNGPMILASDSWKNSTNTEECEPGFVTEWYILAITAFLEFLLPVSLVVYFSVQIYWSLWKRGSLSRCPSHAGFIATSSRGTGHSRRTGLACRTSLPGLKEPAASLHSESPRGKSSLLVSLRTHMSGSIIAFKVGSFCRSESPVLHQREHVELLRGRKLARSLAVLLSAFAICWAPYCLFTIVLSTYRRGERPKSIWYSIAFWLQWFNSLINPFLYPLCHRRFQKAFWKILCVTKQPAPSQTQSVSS
Histamine H4 receptor (Rattus norvegicus), sequence (Q91ZY1 whole entry): as above

Row | Compound | pKb (Histamine H4 receptor [1]) | pKb [2] | Efficacy (Histamine H4 receptor [3]) [%] | EC50 (Histamine H4 receptor [4]) [nM] | EC50 (Histamine H4 receptor [5]) [nM] | Efficacy [6] [%]
1 | CN1CCN(c2cc(-c3ccccc3-c3ccccc3)nc(N)n2)CC1 | 6.79 | 5.72 |  |  |  | 
2 | CN1CCN(c2nc(N)nc(-c3ccc(C#N)cc3)c2-c2ccccc2)CC1 | 5.69 | 5.29 |  |  |  | 
3 | CN1CCN(c2cc(C(C)(C)C)nc(N)n2)CC1 | 8.35 |  |  |  | 67.6 | 64
4 | COc1nc(N2CCN(C)CC2)cc(C(C)(C)C)n1 |  |  | 43 | 1200 | 4680 | 90
5 | CN1CCN(c2cc(I)nc(N)n2)CC1 | 6.33 |  |  |  | 2040 | 67
6 | CN1CCN(c2cc(O)nc(N)n2)CC1 | 4.44 |  |  |  | 1480 | 92
7 | CNc1nc(N2CCN(C)CC2)cc(C(C)(C)C)n1 | 6.08 |  |  |  | 5130 | 46

Now from value to compound, other results behind:

Row | pKb (Histamine H4 receptor [1]) | pKb [2] | Compound | Efficacy (Histamine H4 receptor [3]) [%] | EC50 (Histamine H4 receptor [4]) [nM] | EC50 (Histamine H4 receptor [5]) [nM] | Efficacy [6] [%]
8 | 5.53 | 4.54 | N#Cc1ccc(-c2cc(N3CCN(CC4CC4)CC3)nc(N)n2)cc1 |  |  |  | 
9 | 6.77 | 6.47 | CN1CCN(c2cc(N(C)Cc3ccccc3)nc(N)n2)CC1 |  |  |  | 
10 |  | 6.46 | CN1CCN(c2cc(-n3cnc4ccccc43)nc(N)n2)CC1 | 82 | 178 |  | 
11 | 6.29 | 6.03 | CN1CCN(c2cc(-c3ccc(-c4ccccc4)cc3)nc(N)n2)CC1 |  |  |  | 
12 | 6.96 | 6.1 | CN1CCN(c2cc(N(C)c3ccccc3)nc(N)n2)CC1 |  |  |  | 
13 | 5.68 | 5.74 | CN1CCN(c2cc(-n3cnc(-c4ccccc4)c3)nc(N)n2)CC1 |  |  |  | 
14 | 6.85 | 6.38 | CN1CCN(c2cc(-c3cccc(-c4ccccc4)c3)nc(N)n2)CC1 |  |  |  | 
15 | 8.08 |  | COc1ccc(-c2cc(N3CCN(C)CC3)nc(N)n2)cc1 |  |  | 115 | 71
